Assay results taken from patent publication EP4644383A1 (Jiangsu Yahong Meditech Co., Ltd., priority 2022, dated 2024).
Read-outs that look alike come from different tables or passages of the source.

What was measured:
Type in all cases: biochemical
[1] = target: T1, FGFR2 (Homo sapiens, UniProt P21802); assay: FGFR2 kinase activity inhibition assay (LanthaScreen TR-FRET)
T1 construct: FGFR2's cytoplasmic domain [399-821 (terminal) amino acids]; purchased Carna 08-134
Method: FGFR1 kinase activity was measured using Invitrogen LanthaScreen™ assay technology, which utilized fluorescently-labeled peptides and terbium-labeled antibodies to directly measure an amount of the phosphorylated substrate through time-resolved fluorescence energy transfer (TR-FRET). • ① The test compounds were diluted: starting from a concentration of 1 µM, with a buffer solution in a three-fold serial dilution, the buffer solution being composed of 50 mM HEPES, 10 mM MgCl2, 0.01% TritonX-100, 0.01% BSA, 4 mM DTT (pH 7.5), and 1% DMSO; • ② 0.01 nM recombinant human GST fusion protein FGFR1's cytoplasmic domain [398-822 (terminal) amino acids] (Carna: 08-133) was formulated into a 2 × solution, mixed well with the test compounds, and incubated at 23°C for 10 minutes; • ③ 28 nM Fluorescein-Poly GT peptide substrate (Life Technologies: PV3611) and 28 µM ATP were formulated into a 2 × solution, mixed well with the test compounds and enzyme in ②, and incubated at 23°C for 30 minutes; • ④ 10 µL of 2nM Tb-PY20 antibody (Life Technologies: PV3552) and 10 mM EDTA were added to quench the kinase reaction, and incubated at 22°C for 60 minutes. • ⑤ The reaction was measured using a PerkinElmer EnVision multimode plate reader through TR-FRET dual wavelength detection. • 1. The RFU values were copied from the Envision program. • 2. The ratio of RFU 520nm/RFU 495nm was calculated. • 3. The value of the ratio was converted to a percentage inhibition value. % Inhibition = (max-data)/(max-min) × 100 [formula]
"Min" represents the ratio of the control without enzyme, "max" represents the ratio of the DMSO control, and "data" represents the ratio of the compounds in wells with different concentrations.
"Top" refers to the maximum response, "Bottom" refers to the minimum response, and "HillSlope" refers to the slope of the curve.
According to the same method as that in the FGFR1 kinase activity inhibition assay, the inhibitory activities against FGFR2, FGFR3 and FGFR4 were tested using FGFR2's cytoplasmic domain [399-821 (terminal) amino acids] (Carna: 08-134), FGFR3's cytoplasmic domain [436-806 (terminal) amino acids] (Carna: 08-135) and FGFR4's cytoplasmic domain [460-802 (terminal) amino acids] (Carna: 08-136), respectively. […]

[2] = target: T2, FGFR3 (Homo sapiens, UniProt P22607); assay: FGFR3 kinase activity inhibition assay (LanthaScreen TR-FRET); settings: for Selectivity (X) FGFR1/FGFR3: ratio of IC50 FGFR1/FGFR3, selectivity towards FGFR3; for Selectivity (X) FGFR2/FGFR3: ratio of IC50 FGFR2/FGFR3, selectivity towards FGFR3
T2 construct: FGFR3's cytoplasmic domain [436-806 (terminal) amino acids]; purchased Carna 08-135
T2 sequence (P22607 436-806): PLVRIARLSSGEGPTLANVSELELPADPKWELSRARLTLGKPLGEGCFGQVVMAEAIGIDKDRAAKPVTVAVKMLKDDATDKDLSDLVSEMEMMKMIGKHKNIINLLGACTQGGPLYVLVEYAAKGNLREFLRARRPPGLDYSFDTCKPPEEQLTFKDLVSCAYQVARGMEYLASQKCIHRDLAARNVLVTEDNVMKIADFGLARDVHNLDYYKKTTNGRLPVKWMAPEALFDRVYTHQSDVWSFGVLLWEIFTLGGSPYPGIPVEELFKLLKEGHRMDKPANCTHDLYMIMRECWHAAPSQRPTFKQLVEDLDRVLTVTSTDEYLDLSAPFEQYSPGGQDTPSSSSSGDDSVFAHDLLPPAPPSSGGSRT
Summary of the method: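 Read-out is TR-FRET, with the 520 nm/495 nm emission ratio normalised to DMSO (max) and enzyme-free (min) controls. Enzyme was the FGFR3 cytoplasmic domain, residues 436-806. EDTA (10 mM) stopped the reaction, followed by 60 min at 22 °C before reading.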

[3] = target: T3, FGFR1 (Homo sapiens, UniProt P11362); assay: FGFR1 kinase activity inhibition assay (LanthaScreen TR-FRET)
T3 construct: cytoplasmic domain [398-822 (terminal) amino acids]; purchased Carna 08-133
T3 sequence (P11362 398-822): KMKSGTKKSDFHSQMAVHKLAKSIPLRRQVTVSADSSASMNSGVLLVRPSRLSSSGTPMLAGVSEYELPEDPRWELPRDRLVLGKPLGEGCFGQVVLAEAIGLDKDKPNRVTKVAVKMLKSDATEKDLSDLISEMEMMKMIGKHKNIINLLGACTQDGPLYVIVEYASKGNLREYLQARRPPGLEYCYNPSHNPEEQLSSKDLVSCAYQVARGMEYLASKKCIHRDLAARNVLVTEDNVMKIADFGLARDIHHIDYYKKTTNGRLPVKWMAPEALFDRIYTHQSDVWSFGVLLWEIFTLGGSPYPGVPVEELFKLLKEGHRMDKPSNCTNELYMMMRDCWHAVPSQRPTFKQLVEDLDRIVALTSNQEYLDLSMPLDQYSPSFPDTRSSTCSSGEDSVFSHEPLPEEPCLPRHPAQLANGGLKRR
Summary of the method: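 Emission ratio 520 nm/495 nm by TR-FRET after stopping reaction with 10 mM EDTA and 60 min incubation at 22°C. Inhibition normalized between no-enzyme (min) and DMSO (max) controls, then fitted to a four-parameter curve (Top, Bottom, HillSlope).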

[4] = FGFR3 kinase, TR-FRET, read-out: IC50 (nM) FGFR3
[5] = FGFR1 kinase, TR-FRET, read-out: IC50 (nM) FGFR1

T1 sequence (P21802 399-821): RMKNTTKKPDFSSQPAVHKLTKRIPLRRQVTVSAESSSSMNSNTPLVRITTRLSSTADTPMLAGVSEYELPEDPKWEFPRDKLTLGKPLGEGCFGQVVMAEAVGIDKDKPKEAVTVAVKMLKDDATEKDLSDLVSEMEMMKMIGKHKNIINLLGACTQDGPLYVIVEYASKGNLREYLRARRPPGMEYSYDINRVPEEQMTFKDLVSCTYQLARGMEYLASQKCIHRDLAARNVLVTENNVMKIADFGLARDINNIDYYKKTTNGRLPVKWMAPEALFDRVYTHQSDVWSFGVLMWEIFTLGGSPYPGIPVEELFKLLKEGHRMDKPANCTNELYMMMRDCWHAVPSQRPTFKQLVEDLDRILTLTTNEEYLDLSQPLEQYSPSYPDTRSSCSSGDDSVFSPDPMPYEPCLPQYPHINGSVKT

IC50 ([1]; FGFR2 kinase, TR-FRET, read-out: IC50 (nM) FGFR2)	IC50 [2, 4]	Selectivity (X) FGFR1/FGFR3 [2]	IC50 [3, 5]	Compound	Selectivity (X) FGFR2/FGFR3 [2]	IC50 [1]	IC50 [2]	IC50 [3]
	< 1 nM	B (B represents 20 ≤ multiple X<50)	1 to 10 nM	CC(Oc1ccc2[nH]nc(-c3cnn(C4CN(C(=O)C5(O)CCC5)C4)c3)c2c1)c1cccc2nccnc12 (stereo not drawn) [Example 221, (1-hydroxycyclobutyl)(3-(4-(5-(1-(quinoxalin-5-yl)ethoxy)-1H-indazol-3-yl)-1H-pyrazol-1-yl)azetidin-1-yl)methanone]				
	< 1 nM	B (B represents 20 ≤ multiple X<50)	10 to 100 nM	CC(Oc1ccc2[nH]nc(-c3cnn(C4CN(C(=O)C5(O)CC5)C4)c3)c2c1)c1cc(Cl)cc2nccnc12 (stereo not drawn) [Example 222, (3-(4-(5-(1-(7-chloroquinoxalin-5-yl)ethoxy)-1H-indazol-3-yl)-1H-pyrazol-1-yl)azetidin-1-yl)(1-hydroxycyclopropyl)methanone]				
	< 1 nM	A (A represents 1 ≤ multiple X<20)	1 to 10 nM	Cc1cc2nccnc2c(C(C)Oc2cc(F)c3[nH]nc(-c4cnn(C)c4)c3c2)n1 (stereo not drawn) [Example 225, 5-(1-((7-fluoro-3-(1-methyl-1H-pyrazol-4-yl)-1H-indazol-5-yl)oxy)ethyl)-7-methylpyridino[3,4-b]pyrazine]				
	1 to 10 nM	B (B represents 20 ≤ multiple X<50)	> 100 nM	COc1cc(OC(C)c2cc(Cl)cc3nccnc23)cc2c(-c3cnn(C)c3)n[nH]c12 (stereo not drawn) [Example 226]				
	1 to 10 nM	B (B represents 20 ≤ multiple X<50)	10 to 100 nM	CC(Oc1cc(F)c2[nH]nc(-c3cnn(C)c3)c2c1)c1cc(Cl)cc2nccnc12 (stereo not drawn) [Example 228, 7-chloro-5-(1-((7-fluoro-3-(1-methyl-1H-pyrazol-4-yl)-1H-indazol-5-yl)oxy)ethyl)qu inoxaline]				
	< 1 nM	B (B represents 20 ≤ multiple X<50)	10 to 100 nM	CC(Oc1ccc2[nH]nc(-c3cnn(C4CC(S(C)(=O)=O)C4)c3)c2c1)c1cccc2nccnc12 (stereo not drawn) [Example 229, 5-(1-((3-(1-(3-(methylsulfonyl)cyclobutyl)-1H-pyrazol-4-yl)-1H-indazol-5-yl)oxy)ethyl)quinoxaline]				
	< 1 nM	A (A represents 1 ≤ multiple X<20)	1 to 10 nM	CC(Oc1ccc2[nH]nc(-c3cnn(C)c3)c2c1)c1nc(C2CC2)cc2nccnc12 (stereo not drawn) [Example 230, 7-cyclopropyl-5-(1-((3-(1-methyl-1H-pyrazol-4-yl)-1H-indazol-5-yl)oxy)ethyl)pyri dino[3,4-b]pyrazine]				
	< 1 nM	B (B represents 20 ≤ multiple X<50)	10 to 100 nM	CC(Oc1ccc2[nH]nc(-c3cnn(C4CN(C(=O)C5CC5)C4)c3)c2c1)c1cc(Cl)cc2nccnc12 (stereo not drawn) [Example 238, (3-(4-(5-(1-(7-chloroquinoxalin-5-yl)ethoxy)-1H-indazol-3-yl)-1H-pyrazol-1-yl)azetidin-1-yl)(cyclopropyl) methanone]				
	< 1 nM	B (B represents 20 ≤ multiple X<50)	10 to 100 nM	CC(Oc1ccc2[nH]nc(-c3cnn(C4CN(C=O)C4)c3)c2c1)c1cc(Cl)cc2nccnc12 (stereo not drawn) [Example 240, 3-(4-(5-(1-(7-chloroquinoxalin-5-yl)ethoxy)-1H-indazol-3-yl)-1H-pyrazol-1-yl)azetidine-1-carbaldehyde]				

Continued, molecule first:

Compound	IC50 ([1]; FGFR2 kinase, TR-FRET, read-out: IC50 (nM) FGFR2)	IC50 [2, 4]	Selectivity (X) FGFR1/FGFR3 [2]	IC50 [3, 5]	Selectivity (X) FGFR2/FGFR3 [2]	IC50 [1]	IC50 [2]	IC50 [3]
C[C@@H](Oc1cc(C(F)(F)F)c2[nH]nc(-c3cnn(C)c3)c2c1)c1c(Cl)cncc1Cl [Example 1, (R)-5-(1-(3,5-dichloropyridin-4-yl)ethoxy)-3-(1-methyl-1H-pyrazol-4-yl)-7-(trifluoromethyl)-1H-indazole]	> 100 nM	> 100 nM	A (A represents 1 ≤ multiple X<20)	> 100 nM	A (A represents 1 ≤ multiple X<20)			
C[C@@H](Oc1ccc2[nH]nc(-c3cnn(C4CCN(C(=O)N(C)C)CC4)c3)c2n1)c1c(Cl)cncc1Cl [Example 36, (R)-4-(4-(5-(1-(3,5-dichloropyridin-4-yl)ethoxy)-1H-pyrazolo[4,3-b]pyridin-3-yl)-1H-pyrazol-1-yl)-N,N-dimethylpiperidine-1-carboxamide]			A (A represents 1 ≤ multiple X<20)		A (A represents 1 ≤ multiple X<20)	10 to 100 nM	1 to 10 nM	10 to 100 nM
CC(C)N1CCC(n2cc(-c3n[nH]c4ccc(O[C@H](C)c5c(Cl)cncc5Cl)nc34)cn2)CC1 [Example 37, (R)-5-(1-(3,5-dichloropyridin-4-yl)ethoxy)-3-(1-(1-isopropylpiperidin-4-yl)-1H-pyrazol-4-yl)1H-pyrazolo[4,3-b]pyridine]			A (A represents 1 ≤ multiple X<20)		A (A represents 1 ≤ multiple X<20)	1 to 10 nM	1 to 10 nM	1 to 10 nM
Cc1cc(C(C)Oc2ccc3[nH]nc(-c4cnn(C5CN(C(=O)C(C)(C)N)C5)c4)c3c2)c2cccnc2c1 (stereo not drawn) [Example 215, 2-amino-2-methyl-1-(3-(4-(5-(1-(7-methylquinolin-5-yl)ethoxy)-1H-indazol-3-yl)-1H-pyrazol-1-yl)azetidin-1-yl)propan-1-one]		< 1 nM	B (B represents 20 ≤ multiple X<50)	10 to 100 nM				
CNC(C)(C)C(=O)N1CC(n2cc(-c3n[nH]c4ccc(OC(C)c5cccc6nccnc56)cc34)cn2)C1 (stereo not drawn) [Example 216, 2-methyl-2-(methylamino)-1-(3-(4-(5-(1-(quinoxalin-5-yl)ethoxy)-1H-indazol-3-yl)-1H-pyrazol-1-yl)azetidin-1-yl)propan-1-one]		< 1 nM	A (A represents 1 ≤ multiple X<20)	1 to 10 nM				
Cc1ccc2ncccc2c1C(C)Oc1ccc2[nH]nc(-c3cnn(C4CN(C(=O)C(C)(C)O)C4)c3)c2c1 (stereo not drawn) [Example 217, 2-hydroxy-2-methyl-1-(3-(4-(5-(1-(6-methylquinolin-5-yl)ethoxy)-1H-indazol-3-yl)-1H-pyrazol-1-yl)azetidin-1-yl)propan-1-one]		< 1 nM	C (C represents 50 ≤ multiple X<100)	10 to 100 nM				
CC(Oc1ccc2[nH]nc(-c3cnn(C4CN(C(=O)C5CC5)C4)c3)c2c1)c1cccc2nccnc12 (stereo not drawn) [Example 219, cyclopropyl(3-(4-(5-(1-(quinoxalin-5-yl)ethoxy)-1H-indazol-3-yl)-1H-pyrazol-1-yl)azetidin-1-yl)methanone]		< 1 nM	A (A represents 1 ≤ multiple X<20)	10 to 100 nM				
CC(Oc1ccc2[nH]nc(-c3cnn(CCCS(C)(=O)=O)c3)c2c1)c1cc(Cl)cc2nccnc12 (stereo not drawn) [Example 220, 7-chloro-5-(1-((3-(1-(3-(methylsulfonyl)propyl)-1H-pyrazol-4-yl)-1H-indazol-5-yl)oxy)ethyl)quinox aline]		< 1 nM	C (C represents 50 ≤ multiple X<100)	10 to 100 nM				
CC(Oc1ccc2[nH]nc(-c3cnn(C)c3)c2c1)c1c(C(F)F)ccc2nccnc12 (stereo not drawn) [Example 232]		< 1 nM	A (A represents 1 ≤ multiple X<20)	1 to 10 nM				
CC(C)c1cc2nccnc2c(C(C)Oc2ccc3[nH]nc(-c4cnn(C)c4)c3c2)n1 (stereo not drawn) [Example 237]		1 to 10 nM	B (B represents 20 ≤ multiple X<50)	10 to 100 nM				
CC(Oc1ccc2[nH]nc(-c3cnn(C4COC4)c3)c2c1)c1cc(Cl)cc2nccnc12 (stereo not drawn) [Example 239]		1 to 10 nM	C (C represents 50 ≤ multiple X<100)	10 to 100 nM				
